These results are taken from ChEMBL document CHEMBL4396877, “Design and Synthesis of TASIN Analogues Specifically Targeting Colorectal Cancer Cell Lines with Mutant Adenomatous Polyposis Coli (APC)” (J Med Chem, 2019).

As a reminder, the Cmax is the peak of the concentration-time curve. By Tmax is commonly meant the time from dosing to the highest level. Usually Vd stands for a proportionality between amount in the body and measured concentration, not a real space. The low end stands for little distribution into tissue, the high end for wide distribution into tissue. By Kp is commonly meant the ratio of the level in a tissue or fluid to that in plasma or blood.

A short description of data set [1]: Cmax in CD-1 mouse large intestine at 10 mg/kg, ip after 10 to 1440 mins by LC/MS analysis. In kind it is ADME, organism-based. Set-up: dose 10 mg/kg, route intraperitoneal.
Data set [2] is described as follows: Cmax in CD-1 mouse large intestine at 10 mg/kg, iv after 10 to 1440 mins by LC/MS analysis. In kind it is ADME, organism-based. Set-up: dose 10 mg/kg, route intravenous.
A short description of data set [3]: Tmax in CD-1 mouse large intestine at 10 mg/kg, ip after 10 to 1440 mins by LC/MS analysis. In kind it is ADME, organism-based.
Data set [4] is described as follows: Tmax in CD-1 mouse large intestine at 10 mg/kg, iv after 10 to 1440 mins by LC/MS analysis. In kind it is ADME, organism-based.
A short description of data set [5]: AUClast in CD-1 mouse Large intestine at 10 mg/kg, ip after 10 to 1440 mins by LC/MS analysis. In kind it is ADME, organism-based. To be noted: in vivo.
The nature of data set [6]: AUClast in CD-1 mouse Large intestine at 10 mg/kg, iv after 10 to 1440 mins by LC/MS analysis. Format: ADME, organism-based. The note with it: in vivo.
Data set [7] in a line: Volume of distribution in CD-1 mouse by LC-MS/MS analysis. Format: ADME. To be noted: in vivo.
The nature of data set [8]: Cmax in CD-1 mouse large intestine at 5 mg/kg, iv after 10 to 1440 mins by LC/MS analysis. Set-up: dose 5 mg/kg, route intravenous. In kind it is ADME, organism-based.
A short description of data set [9]: Cmax in CD-1 mouse large intestine at 20 mg/kg, po after 10 to 1440 mins by LC/MS analysis. In kind it is ADME, organism-based. Set-up: dose 20 mg/kg, route oral.
Data set [10] is described as follows: Tmax in CD-1 mouse large intestine at 5 mg/kg, iv after 10 to 1440 mins by LC/MS analysis. Format: ADME, organism-based.
Data set [11] is described as follows: Tmax in CD-1 mouse large intestine at 20 mg/kg, po after 10 to 1440 mins by LC/MS analysis. Format: ADME, organism-based.
Data set [12] in a line: AUClast in CD-1 mouse Large intestine at 5 mg/kg, iv after 10 to 1440 mins by LC/MS analysis. In kind it is ADME, organism-based. To be noted: in vivo.
Data set [13] in a line: AUClast in CD-1 mouse Large intestine at 20 mg/kg, po after 10 to 1440 mins by LC/MS analysis. The note with it: in vivo. Format: ADME, organism-based.
Data set [14] can be described thus: Ratio of drug level in lung to plasma of CD-1 mouse at 5 mg/kg, iv. Format: ADME, organism-based.

For `C#CCC1CCN(C2CCN(S(=O)(=O)c3ccc(Br)cc3)CC2)CC1`, the Cmax in [1] stood at 5750 ng/g; in data set [2], 2970 ng/g. In addition, the Tmax in data set [3] and in data set [4] was 10 min in each case. The values for the AUClast in data set [5] and in data set [6] were 633289 ng·min/g and 559037 ng·min/g, respectively. In addition, the distribution volume (Vd) in data set [7] was in the range of 5.87 to 63 L/kg.

`CC1CCN(C2CCN(S(=O)(=O)c3ccc(Cl)cc3)CC2)CC1` registered a Cmax in [2] of 1410 ng/g. The same molecule displayed an AUClast in data set [6] of 262874 ng·min/g. Besides, the volume of distribution (Vd) in [7] lay within 5.87 to 63 L/kg.

`CC1CCN(C2CCN(S(=O)(=O)c3ccc(OC(F)F)cc3)CC2)CC1`: the Cmax in data set [1] came to 10100 ng/g; in [8], 1820 ng/g; in [9], 3250 ng/g. In addition, the Tmax in data set [3], in data set [10] and in data set [11] was 10 min in each case. Also, the AUClast stood at 790425 ng·min/g in data set [5], 511878 ng·min/g in data set [12] and 890969 ng·min/g in [13]. Moreover, the Kp in [14] is 5.7. This molecule also displayed a distribution volume (Vd) in [7] of 5.87 to 63 L/kg.

Molecule `COc1ccc(S(=O)(=O)N2CCC(N3CCC(C)CC3)CC2)cc1` returned a peak concentration (Cmax) in data set [1] of 10700 ng/g. For the same molecule, the time of peak concentration (Tmax) in [3] was 10 min. Also, the AUClast in data set [5] was 737709 ng·min/g.
